Results reported in patent publication US5262431A, “Prolinal derivatives and pharmaceutical compositions thereof” (Ono Pharmaceutical Co., Ltd., priority 1986, dated 1993).
Peptide text beside a SMILES is read from it. * marks the point of attachment. Cbz = O=C(OCc1ccccc1)*; CH2Cl = ClC*

system: prolyl endopeptidase; experiment: not given; conditions: literature; cited from earlier work

Compound | inhibition of prolyl endopeptidase (in words)
O=C(NCC(=O)N1CCC[C@H]1C(=O)CCl)OCc1ccccc1 [N-benzyloxycarbonyl-glycyl-L-prolyl-chloromethane] (Cbz-Gly-Pro-CH2Cl) | strongly inhibit prolyl endopeptidase

molecular target: T1, prolyl endopeptidase (Bos taurus, UniProt Q9XTA2); experiment: Prolyl endopeptidase inhibitory activity in vitro; assay type: biochemical, bovine; conditions: not given
T1 construct: prolyl endopeptidase which was purified from bovine brain; from tissue; host or cells: bovine brain
T1 sequence (Q9XTA2 1-710): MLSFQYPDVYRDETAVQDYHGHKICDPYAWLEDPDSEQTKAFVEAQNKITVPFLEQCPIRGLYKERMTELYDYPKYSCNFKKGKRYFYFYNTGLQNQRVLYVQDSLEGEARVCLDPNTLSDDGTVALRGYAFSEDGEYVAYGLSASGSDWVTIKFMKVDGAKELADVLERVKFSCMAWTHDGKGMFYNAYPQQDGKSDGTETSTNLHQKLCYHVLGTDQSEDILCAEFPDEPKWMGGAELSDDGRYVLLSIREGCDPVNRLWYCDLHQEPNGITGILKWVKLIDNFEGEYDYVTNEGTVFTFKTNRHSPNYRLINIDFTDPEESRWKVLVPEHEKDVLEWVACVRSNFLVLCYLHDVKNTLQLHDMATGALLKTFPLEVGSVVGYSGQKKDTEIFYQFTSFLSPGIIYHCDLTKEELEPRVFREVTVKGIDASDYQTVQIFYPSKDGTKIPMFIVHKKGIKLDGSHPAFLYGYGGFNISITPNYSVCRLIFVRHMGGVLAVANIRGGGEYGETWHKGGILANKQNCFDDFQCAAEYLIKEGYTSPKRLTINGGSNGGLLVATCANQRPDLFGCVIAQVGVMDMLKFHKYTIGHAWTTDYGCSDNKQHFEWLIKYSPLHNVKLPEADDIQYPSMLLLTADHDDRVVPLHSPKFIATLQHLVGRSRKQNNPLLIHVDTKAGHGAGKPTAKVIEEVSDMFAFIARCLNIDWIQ
Procedure: Prolyl Endopeptidase Inhibitory Activity In Vitro
Inhibitory activity of prolyl endopeptidase in vitro was measured by the following test system.
A mixed solution of 20 mM tris-HCl buffer (pH 7.5; 935 μl; containing 10 mM EDTA and 10 mM mercaptoethanol), a solution of a compound of the present invention In DMSO (10 μl) and a solution of prolyl endopeptidase which was purified from bovine brain (0.13 unit; prepared by the method described in J. Biochem., 94, 1179 (1983)) in tris-HCl buffer (15 μl) was preincubated for 15 mins at 37° C.
To the solution, 5 mM of N-benzyloxycarbonyl-glycyl-prolyl-p-nitroanilide (40 μl) in a mixture of 40% dioxane-60% water was added. The solution was incubated for 1 min at the same temperature.
Optical absorption (a1) at 405 nm of the solution, and optical absorption (a2) at 405 nm of the solution after more 30 mins' incubation at 37° C. were measured.
Optical absorptions (b1 and b2) of the solutions using DMSO instead of the solution of the compound of the present invention were also measured.
Inhibitory ratio was calculated by the following expression and IC50 (required concentration for 50% inhibition) was obtained (See Protein, Nucleic acid and Enzyme 25(6), 513, 1980.). [formula]

Compound | IC50
CC(C)C(CCCc1ccccc1)C(=O)N1CCC[C@H]1C=O (stereo partly drawn) [1(a), N-(2-isopropyl-5-phenyl-pentanoyl)-L-prolinal] | 0.37 µM
CC(C)C(CCCCCCc1ccccc1)C(=O)N1CCC[C@H]1C=O (stereo partly drawn) [1(c), N-(2-isopropyl-8-phenyl-octanoyl)-L-prolinal] | 0.19 µM
CC(C)C(CCCCCCCCc1ccccc1)C(=O)N1CCC[C@H]1C=O (stereo partly drawn) [1(e), N-(2-isopropyl-10-phenyldecanoyl)-L-prolinal] | 0.12 µM
CC(C)C(CCc1ccccc1)C(=O)N1CCC[C@H]1C=O (stereo partly drawn) [N-(2-isopropyl-4-phenyl-butyryl)-L-prolinal, reference compound] | > 5 µM
CC(C)C(CCCCCc1ccccc1)C(=O)N1CCC[C@H]1C=O (stereo partly drawn) [1(b), N-(2-isopropyl-7-phenyl-heptanoyl)-L-prolinal] | 0.08 µM
COc1ccc(CCCC(=O)N2CCC[C@H]2C=O)cc1 [N-[4-(4-methoxyphenyl)bu-tyryl]-L-prolinal, reference compound] | 21 µM
CC(C)C(CCCCc1ccccc1)C(=O)N1CCC[C@H]1C=O (stereo partly drawn) [Example 1, N-(2-Isopropyl-6-Phenylhexanoyl)-L-Prolinal] | 0.28 µM
COc1ccc(CCCCCC(C(=O)N2CCC[C@H]2C=O)C(C)C)cc1 (some centres unmarked) | 0.17 µM
O=C[C@@H]1CCCN1C(=O)[C@@H]1CCC[C@H]1CCCCc1ccccc1 (relative stereo) [Example 2, N-[DL-Trans-2-(4-Phenylbutyl)Cyclopentanecarbonyl] -L-prolinal] | 0.13 µM
CC(C)C(CCCCCCCc1ccccc1)C(=O)N1CCC[C@H]1C=O (stereo partly drawn) [1(d), N-(2-isopropyl-9-phenyl-nonanoyl)-L-prolinal] | 0.23 µM

same assay, conditions: Table I, formula (Ia); purified from bovine brain; pH 7.5, 37° C.; read-out: Concentration for 50% inhibition IC50

Compound | IC50
N-[9-(4-phenylbutyl)cyclo-hexane carbonyl]-L-prolinal [2(a)] | 0.43 µM

same assay, conditions: read-out: Concentration for 50% inhibition IC50; Table II, formula (Ib); purified from bovine brain; pH 7.5, 37° C.

Compound | IC50
O=C[C@@H]1CCCN1C(=O)C(CCCCCc1ccccc1)c1ccccc1 (some centres unmarked) | 0.61 µM
O=C[C@@H]1CCCN1C(=O)C(CCCCc1ccccc1)C1CCCCC1 (some centres unmarked) | 0.69 µM
